US9651554B2, “Molecular diagnostic methods for predicting brain metastasis of breast cancer” (The Methodist Hospital Research Institute, priority 2010, dated 2017)

How the values were obtained:
in vivo = settings: BALB/c nude, mouse, po
Procedure: Blood and whole brain of the mice were harvested 6 hours after the last treatment. Plasma was isolated from blood by centrifugation at 3000 rpm for 10 min at 4° C. Half of each brain was flash frozen using liquid nitrogen. All plasma and brain samples were stored at −80° C. until analysis by HPLC-MS/MS.
The separation was performed by injecting 10 μL of the sample on Acquity HPLC BEH C18 column (50×2.1 mm I.D., 1.7 μm, Waters, Milford, Mass., USA). […] The flow rate was 0.45 mL/min using a column temperature of 45° C.
The blood and whole brain of the mice were harvested six hours after the last treatment and the drug concentrations were measured by HPLC-MS/MS.

[1] = reported (Porkka et al., 2008); cited from earlier work
231-BR-HER2 cells = assay: Brain metastasis xenograft, 231-BR-HER2 model: metastases counted in H&E-stained brain sections; settings: for fewer large metastases than vehicle / fewer micrometastases than vehicle: 231-BR-HER2 cells, p<0.05; for large metastases # / Micro metastases #: 231-BR-HER2 model; for large metastases #: >50 μm^2; for Micro metastases #: ≦50 μm^2
231-BR-vector cells = assay: Brain metastasis xenograft, 231-BR-vector model: metastases counted in H&E-stained brain sections; settings: for large metastases # / Micro metastases #: 231-BR-vector model; for large metastases #: >50 μm^2; for Micro metastases #: ≦50 μm^2
Excerpt: Treatment started 3 days after cell injection.
Brain sections (10 μm thick) were serially sectioned.
Mice received 28 days treatment, and all mice were sacrificed, and brains were harvested for ex vivo whole-brain fluorescent imaging of EGFP-positive brain metastases.

[2] = 25 mg/kg once daily oral 28 days
[3] = 50 mg/kg once daily oral 28 days
[4] = 40 mg/kg once daily oral 28 days
[5] = 80 mg/kg once daily oral 28 days

What does the source list for `Cc1nc(Nc2ncc(C(=O)Nc3c(C)cccc3Cl)s2)cc(N2CCN(CCO)CC2)n1` [Dasatinib]?
Kp at 336 h (in vivo): 0.06 to 0.12; BBB crossing [1]: able to cross the BBB; fewer large metastases than vehicle (231-BR-HER2 cells; 25 or 50 mg/kg body weight): 38.1-56.9%; fewer micrometastases than vehicle (231-BR-HER2 cells; 25 or 50 mg/kg body weight): 40.2-61.4%; large metastases # (231-BR-HER2 cells; [2]): 12.5 ± 1.8; Micro metastases # (231-BR-HER2 cells; [2]): 175.7 ± 27.8; large metastases # (231-BR-HER2 cells; [3]): 8.7 ± 1.6; Micro metastases # (231-BR-HER2 cells; [3]): 113.2 ± 23.8; fewer micrometastases than vehicle (231-BR-vector cells; 231-BR-vector cells, 25 or 50 mg/kg body weight, p<0.05): 33.8-54.4%; fewer large metastases than vehicle (231-BR-vector cells; 231-BR-vector cells, 25 or 50 mg/kg, p<0.05): 41.9-49.3%; large metastases # (231-BR-vector cells; [2]): 8.6 ± 1.5; Micro metastases # (231-BR-vector cells; [2]): 144.6 ± 12.5; large metastases # (231-BR-vector cells; [3]): 7.5 ± 1.3; Micro metastases # (231-BR-vector cells; [3]): 99.5 ± 10.3

With `CCN(CC)CCNC(=O)c1c(C)[nH]c(/C=C2\C(=O)Nc3ccc(F)cc32)c1C` [Sunitinib] as the compound, how does the Kp at 336 h (in vivo) read?
Its Kp at 336 h is 0.24 to 0.31.

And the “fewer large metastases than vehicle” value (231-BR-HER2 cells; 40 or 80 mg/kg body weight)?
The value was 22.7-24.8%.

What about the “fewer micrometastases than vehicle” value (231-BR-HER2 cells; 40 or 80 mg/kg body weight) of the same compound?
The value was 22.3-31.9%.

What about the “Micro metastases #” value (231-BR-HER2 cells; [4]) of the same compound?
The value was 228.1 ± 28.3.

What about the “Micro metastases #” value (231-BR-HER2 cells; [5]) of the same compound?
Its value is 199.8 ± 24.1.

What about the “fewer large metastasis than vehicle” value (231-BR-vector cells; 231-BR-vector cells, 80 mg/kg body weight, p<0.05) of the same compound?
Its value is 31%.

What about the “fewer micrometastases than vehicle” value (231-BR-vector cells; 231-BR-vector cells, 40 or 80 mg/kg body weight, p<0.05) of the same compound?
The value was 28.5-31.3%.

What about the “large metastases #” value (231-BR-vector cells; [4]) of the same compound?
Its value is 11.8 ± 2.0.

What about the “large metastases #” value (231-BR-vector cells; [5]) of the same compound?
Its value is 10.2 ± 1.3.

What about the “Micro metastases #” value (231-BR-vector cells; [5]) of the same compound?
The value was 150.2 ± 22.
